Results published in ChEMBL document CHEMBL1201862, “PubChem BioAssay data set” (2004).
“And” between values parts separate entries of the source, which are not always exact repeats. Equal values may be shown once.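 1) Cells in 96-well plates. 2) Compound, 48 h, 5 concentrations. 3) Linear interpolation between surrounding doses. 4) Unreached endpoint = highest concentration. GI50 marks 50% less growth.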 The source made the active and inactive calls. No stated cut-off is given here; in the data, active = GI50 up to about 1.1 µM and inactive = higher.

Legend:
Assay in all cases: growth of human tumour cells (NCI), 48 h
SW-620 = tested on: SW-620
SF-268 = tested on: SF-268
SNB-19 = tested on: SNB-19
HOP-62 = tested on: HOP-62
RXF 393 = tested on: RXF 393
OVCAR-3 = tested on: OVCAR-3
KM12 = tested on: KM12
HL-60 = tested on: HL-60
COLO 205 = tested on: COLO 205
OVCAR-4 = tested on: OVCAR-4
UACC-62 = tested on: UACC-62
NCI-H23 = tested on: NCI-H23
M14 = tested on: M14
SK-MEL-2 = tested on: SK-MEL-2
SK-MEL-28 = tested on: SK-MEL-28
SNB-75 = tested on: SNB-75
HCT-15 = tested on: HCT-15
RPMI-8226 = tested on: RPMI-8226
NCI-H460 = tested on: NCI-H460
HCC 2998 = tested on: HCC 2998

Compound | GI50 (SW-620) | GI50 (SF-268) | GI50 (SNB-19) | GI50 (HOP-62) | GI50 (RXF 393) | GI50 (OVCAR-3) | GI50 (KM12) | GI50 (HL-60) | GI50 (COLO 205) | GI50 (OVCAR-4) | GI50 (UACC-62) | GI50 (NCI-H23) | GI50 (M14) | GI50 (SK-MEL-2) | GI50 (SK-MEL-28) | GI50 (SNB-75) | GI50 (HCT-15) | GI50 (RPMI-8226) | GI50 (NCI-H460) | GI50 (HCC 2998)
CN(C)[C@H]1CC[C@H]2[C@@H]3CCC4C[C@@H](NC(=O)NC(Cc5ccccc5)c5nccs5)CC[C@]4(C)[C@H]3CC[C@]12C (stereo not given in full) | 0.687 µM (active) | 1.66 µM (inactive) | 1.79 µM (inactive) | 0.826 µM (active) | 1.54 µM (inactive) | 0.853 µM (active) | 1.12 µM (inactive) | 0.218 µM (active) | 0.82 µM (active) | 1.72 µM (inactive) | 1.92 µM (inactive) | 1.77 µM (inactive) | 1.69 µM (inactive) | 1.1 µM (active) | 1.11 µM (active) | 1.75 µM (inactive) | 0.687 µM | 0.792 µM (active) | 1.06 µM (active) | 1.75 µM (inactive)
Fc1ccccc1/N=c1\oc2ccc(Br)cc2cc1-c1nc2ccccc2[nH]1 | > 21.9 µM (inactive) | 0.522 µM (active) | 4.26 µM (inactive) | 3.65 µM (inactive) | 7.64 µM (inactive) | 6.15 µM (inactive) | > 20.7 µM (inactive) | > 100 µM (inactive) | 35.6 µM (inactive) | 5.96 µM (inactive) | 12.8 µM (inactive) | 7.33 µM (inactive) | 11.2 µM (inactive) | 8.18 µM (inactive) | 14.5 µM (inactive) | 1.84 µM (inactive) | 30.1 µM | 28 µM (inactive) | 15 µM (inactive) | 10.4 µM (inactive)
COc1cc(OC)cc(-c2nc(O)c3ccccc3n2)c1 | > 100 µM (inactive) | 63.2 µM (inactive) | 49 µM (inactive) | 38.9 µM (inactive) | 29.8 µM (inactive) | > 100 µM (inactive) | > 100 µM (inactive) | > 100 µM (inactive) | > 100 µM (inactive) | > 100 µM (inactive) | > 100 µM (inactive) | > 100 µM (inactive) | > 100 µM (inactive) | > 100 µM (inactive) | > 100 µM (inactive) | 29.6 µM (inactive) | > 100 µM | > 100 µM (inactive) | 28.3 µM (inactive) | > 100 µM (inactive)
Nc1nc(F)nc2c1ncn2C1OC(COP(=O)(O)O)C(O)C1O (stereo not given) | 64.9 µM (inactive) | 76 µM (inactive) | 25.1 µM (inactive) | 8.53 µM (inactive) | 51.4 µM (inactive) | 119 µM (inactive) | 266 µM (inactive) | 5.4 µM (inactive) | 95.1 µM (inactive) | 212 µM (inactive) | 56.2 µM (inactive) | 19.6 µM (inactive) | 6.4 µM (inactive) | 31.4 µM (inactive) | 58.1 µM (inactive) | 188 µM (inactive) | 175 µM | 80.4 µM (inactive) | 94 µM (inactive) | 177 µM (inactive)
O=C(c1ccc(Cl)cc1)c1cnc(Nc2ccccc2Cl)s1 | 40.1 µM (inactive) | 26.4 µM (inactive) | 20.2 µM (inactive) | 25.1 µM (inactive) | 20.7 µM (inactive) | 18.3 µM (inactive) | 27.2 µM (inactive) | > 100 µM (inactive) | 37 µM (inactive) | 33.4 µM (inactive) | 21.5 µM (inactive) | 22 µM (inactive) | 19.7 µM (inactive) | 15.6 µM (inactive) | 16.6 µM (inactive) | 19.6 µM (inactive) | 22.8 µM | > 100 µM (inactive) | 25.3 µM (inactive) | 29 µM (inactive)
COC(=O)[C@H](Cc1ccccc1)NC(=O)[C@H](Cc1ccccc1)NC(=O)CN1C(=O)[C@@H]2C3C=CC(C3)[C@@H]2C1=O | 16.5 µM (inactive) and 20.9 µM (inactive) | 13.2 µM (inactive) and 17.7 µM (inactive) | 21 µM (inactive) and 20.8 µM (inactive) | 19.7 µM (inactive) and 18.7 µM (inactive) | 20.5 µM (inactive) and 18.4 µM (inactive) | 16.6 µM (inactive) and 18 µM (inactive) | 20.7 µM (inactive) and 17.1 µM (inactive) | 11 µM (inactive) | 17.1 µM (inactive) and 15.8 µM (inactive) | 16.1 µM (inactive) and 19 µM (inactive) | 16.4 µM (inactive) and 16.6 µM (inactive) | 17.6 µM (inactive) and 17.2 µM (inactive) | 19.9 µM (inactive) and 18.6 µM (inactive) | 18.2 µM (inactive) and 17.9 µM (inactive) | 19.3 µM (inactive) and 18.1 µM (inactive) | 18.7 µM (inactive) and 18 µM (inactive) | 15.6 µM and 17.4 µM | 21.6 µM (inactive) and 14.9 µM (inactive) | 21.2 µM (inactive) and 20.6 µM (inactive) | 17.3 µM (inactive) and 16.7 µM (inactive)
O=C1OC(CN2CCN(c3ccccc3)CC2)CN1C(=S)Nc1ccccc1 (stereo not given) | > 100 µM (inactive) | > 100 µM (inactive) | > 100 µM (inactive) | > 100 µM (inactive) | > 100 µM (inactive) | > 100 µM (inactive) | 88.3 µM (inactive) | > 100 µM (inactive) | > 100 µM (inactive) | > 100 µM (inactive) | > 100 µM (inactive) | > 100 µM (inactive) | > 100 µM (inactive) | 31.8 µM (inactive) | > 100 µM (inactive) | 65.6 µM (inactive) | > 100 µM | 92.5 µM (inactive) | 23.8 µM (inactive) | > 100 µM (inactive)
Clc1ccc(-c2nn3c(COc4cccc(OCc5nnc6sc(-c7ccc(Cl)cc7)nn56)c4)nnc3s2)cc1 | 25.9 µM (inactive) | 21.7 µM (inactive) | 24.6 µM (inactive) | 56.6 µM (inactive) | 16.1 µM (inactive) | 6.78 µM (inactive) | 29.5 µM (inactive) | 21.5 µM (inactive) | 29.2 µM (inactive) | 12.9 µM (inactive) | 23.2 µM (inactive) | 22.3 µM (inactive) | 27.4 µM (inactive) | 58.5 µM (inactive) | 7.78 µM (inactive) | 23 µM (inactive) | 27.5 µM | 22.1 µM (inactive) | 31 µM (inactive) | 32.1 µM (inactive)
COc1ccc(CC2NCCc3cc(OC)c(OC)cc32)cc1Br (stereo not given) | 30.9 µM (inactive) | 63.5 µM (inactive) | 78.3 µM (inactive) | 35.6 µM (inactive) | 15.1 µM (inactive) | 76.6 µM (inactive) | 21.6 µM (inactive) | 14 µM (inactive) | 16.8 µM (inactive) | 38 µM (inactive) | 28.9 µM (inactive) | 23 µM (inactive) | 16.8 µM (inactive) | 27.2 µM (inactive) | 16.6 µM (inactive) | 24.3 µM (inactive) | > 100 µM | 18.5 µM (inactive) | 21.2 µM (inactive) | 18 µM (inactive)
O=c1/c(=C/c2ccc([N+](=O)[O-])o2)sc2n1[C@@H](c1ccc3c(c1)OCO3)C=C(c1cc(F)c(Cl)cc1Cl)N=2 | 5.42 µM (inactive) | 28.7 µM (inactive) | 20.8 µM (inactive) | 22.5 µM (inactive) | 16.1 µM (inactive) | 16.8 µM (inactive) | 16.6 µM (inactive) | 15.6 µM (inactive) | 18.7 µM (inactive) | 15.7 µM (inactive) | 15.9 µM (inactive) | 20.6 µM (inactive) | 13.9 µM (inactive) | 25.1 µM (inactive) | 22.3 µM (inactive) | 17.3 µM (inactive) | 9.59 µM | 9.31 µM (inactive) | 17.8 µM (inactive) | 12.9 µM (inactive)
Cc1ccc(NC(=S)C#N)c(C)c1 | > 73.5 µM (inactive) | > 87.3 µM (inactive) | > 100 µM (inactive) | > 100 µM (inactive) | > 100 µM (inactive) | 37.7 µM (inactive) | > 82.8 µM (inactive) | 20.5 µM (inactive) | > 84.1 µM (inactive) | > 64.1 µM (inactive) | 97.3 µM (inactive) | > 69.5 µM (inactive) | 97.3 µM (inactive) | > 100 µM (inactive) | 65.3 µM (inactive) | > 82.4 µM (inactive) | > 92.7 µM | 21.3 µM (inactive) | > 89.7 µM (inactive) | > 100 µM (inactive)
O=S1(=O)c2ccccc2N=C(c2ccccc2Cl)CC1c1ccc(F)cc1 (stereo not given) | 13.4 µM (inactive) | 22.1 µM (inactive) | 16.8 µM (inactive) | > 10 µM (inactive) | 6.68 µM (inactive) | 14.3 µM (inactive) | 16.5 µM (inactive) | 14.5 µM (inactive) | 21.5 µM (inactive) | 18.4 µM (inactive) | 15.8 µM (inactive) | 17.1 µM (inactive) | 19 µM (inactive) | 17.8 µM (inactive) | 18.2 µM (inactive) | 25.5 µM (inactive) | 18.1 µM | 3.4 µM (inactive) | 18.5 µM (inactive) | 14.2 µM (inactive)
c1cc(CSSCc2ccncc2)ccn1 | 6.27 µM (inactive) | 28.4 µM (inactive) | 34 µM (inactive) | 46.2 µM (inactive) | 23.6 µM (inactive) | 33.6 µM (inactive) | 29.6 µM (inactive) | 13.7 µM (inactive) | 8.11 µM (inactive) | > 74.3 µM (inactive) | 24.9 µM (inactive) | 22 µM (inactive) | 11.3 µM (inactive) | 27.9 µM (inactive) | 64 µM (inactive) | 57.1 µM (inactive) | 19.4 µM | 9.18 µM (inactive) | 23.7 µM (inactive) | 22.9 µM (inactive)
CCN(CC)CCOC(c1cc(OC)ccc1OC)c1ccc2n1-c1ccccc1OC2 (stereo not given) | 8.85 µM (inactive) | 14.5 µM (inactive) | 15.7 µM (inactive) | 16.4 µM (inactive) | 8.91 µM (inactive) | 15.7 µM (inactive) | 16.5 µM (inactive) | 13.2 µM (inactive) | 5.42 µM (inactive) | 13.9 µM (inactive) | 2.39 µM (inactive) | 12.9 µM (inactive) | 15.7 µM (inactive) | 13.1 µM (inactive) | 15 µM (inactive) | 2.31 µM (inactive) | 11.5 µM | 3.44 µM (inactive) | 12.4 µM (inactive) | 5.31 µM (inactive)
